# Several values for one entry are separate records, joined by “and”; a condition that tells them apart may be missing. Equal values may be shown once. Read-outs that look alike come from different tables or passages of the source.
# Key:
# [1] = system: CD34+ cells from mobilized peripheral blood; format: cell-based, human
# Experimental: (§1) Supernatant was collected repeatedly 24 to 72 hours after transfection, pooled, and then concentrated by ultracentrifugation at 10,000 rpm for 12 hours. Clinical grade vector was packaged similarly in 293F cells under more stringent laboratory conditions. Supernatant was harvested at 24 hours and 36 hours after transfection. The supernatant is filtered through a series of cartridge filters of decreasing pore diameter, then concentrated by ultrafiltration. Benzonase is added by diafiltration to destroy contaminating plasmid and cellular DNA. The material is applied to a Sephacryl-500 gel filtration column then filtered through a 0.22-micron filter.
# Cells: Frozen CD34 positive cells (greater than 98% purity) derived from adult bone marrow, adult G-CSF mobilized peripheral blood and cord blood were purchased from AllCells (Berkeley, Calif.). Additional peripheral blood CD34 cells mobilized by cyclophosphamide and GCSF and were generous gifts from Dr. Christian Chabannon.
# (§2) Research grade vector transduction with VRX430: CD34+ cells were thawed according to manufacturer's specifications, then cultured at 37° C. for 1 hour. Cells were cultured with an inhibitor at 37° C. for 0 to 90 minutes before addition of vector. MOI 25 to 50 of vector was added to plates coated with 1.5 μg/cm^2 Retronectin (Takara, Japan), then cells were added to the plate and cultured at 37° C.. Twenty-four hours after inhibitor addition, the cells were washed free of vector and drug and were resuspended in fresh medium containing MOI 25 of vector and cultured at 37° C.. CD34+ cells were cultured in IMDM (Invitrogen, Carlsbad, Calif.) supplemented with 1× BIT (Stem Cell Technologies, Vancouver BC) and 25 to 100 ng/ml of TPO, Flt-3L and SCF (R&D Systems, Minneapolis, Minn.). Cells used in in vitro assays were washed free of vector four days after the start of transduction. Cells transplanted into mice were washed free of vector two days after the start of transduction and immediately transplanted into mice.
# Cell culture: Four days after transduction CD34 positive cells were washed free of vector and maintained in liquid culture in IMDM plus 1× BIT supplemented with 25 ng/mL TPO, SCF, and Flt-3L, or plated in CFU and LTC-IC assays. Five hundred to 1000 cells were plated in methylcellulose (H3231, Stem Cell Technologies, Vancouver, BC) supplemented with […] and 1 U/mL EPO. Colony growth was scored two weeks after plating and was analyzed by flow cytometry for GFP expression. One to 3×10^5 cells were overlayed upon MS-5 stromal cells for the LTC-IC assay. The cells underwent demidepopulation weekly, in which half of the medium was removed and replaced with fresh medium. The cells collected in each demidepopulation were analyzed by flow cytometry. After 5 weeks, a mix of adherent and non-adherent cells was plated into methylcellulose supplemented as above for formation of secondary CFU. Colonies were scored three weeks after plating and analyzed for GFP expression by flow cytometry.
# CD34+ cells isolated from mobilized peripheral blood were cultured short and long term.
# [2] = system: human CD34 positive cells; format: cell-based; details: for effect on transduction efficiency (in words): summary statements
# [3] = system: Hematopoietic stem cells (hsc); details: research grade vector
# Experimental: as §1
# as §2, with “Cells transplanted into mice were washed free of vector two days after the start of transduction and immediately transplanted into mice.” left out
# Cell culture: Four days after transduction CD34 positive cells were washed free of vector and maintained in liquid culture in IMDM plus 1× BIT supplemented with 25 ng/mL TPO, SCF, and Flt-3L, or plated in CFU and LTC-IC assays. […] Colony growth was scored two weeks after plating and was analyzed by flow cytometry for GFP expression. […] The cells collected in each demidepopulation were analyzed by flow cytometry. […] Colonies were scored three weeks after plating and analyzed for GFP expression by flow cytometry.
# [4] = system: SCID repopulating cells (SRC); experiment: NOD-SCID xenotransplantation of transduced cord blood CD34+ cells (SRC), primary transplant; format: in vivo, NOD-SCID mice
# Experimental: (§3) Mice: NOD.CB17-Prkdcscid/J (formerly known as NOD/LtSz-Prkdcscid/J) mice were purchased from Jackson Laboratories (Bar Harbor, Me.) and housed in microisolatorcages at Bioqual, Inc (Rockville, Md.). All experiments were approved by the ACUC. 6 to 7 week old mice were sublethally irradiated with 350 cGy (^137Cs source), then transplanted the next day with 2×10^5 cord blood CD34+ cells. Mice sacrificed at 6 to 8 weeks were tested for EGFP expression in CD45+, CD34+, CD33+, CD19+ and CD3+ subsets from the bone marrow using PE conjugated antibodies (clones HI30, 581, WM53, HIB19, UCHT1, respectively, Pharmingen, San Diego, Calif.) by flow cytometry (FACSCaliber, Becton Dickinson, Franklin Lakes, N.J.). Mice sacrificed at 14 weeks were analyzed for EGFP expression in the CD45+, CD34+, CD33+, CD19+ and CD3+ subsets in the marrow, spleen and thymus. For secondary transplantation, half of the total marrow recovered from the primary mouse was transplanted into 350 cGy irradiated secondary recipient NOD.CB17-Prkdcscid/J mice. Mice were sacrificed after 8 weeks and analyzed for EGFP expression in the CD45+, CD33+ and CD19 subsets from the bone marrow.
# [5] = system: SCID repopulating cells (SRC); experiment: Secondary transplantation of SRCs in NOD/SCID mice; format: in vivo
# Experimental: as §3
# NOD-SCID mice were given a primary transplantation of stem cells isolated from cord blood in the presence of antibody to the murine IL-2 receptor beta chain to inhibit natural killer cell lysis of the transplanted cells. […] Bone marrow was isolated at 14 weeks post transplantation. Total recovered cells (a mixture of human and mouse) were transplanted into naïve NOD/SCID recipient mice at 15-20×10^6 cells per mouse. During secondary transplantation, mice were not given antibody to the murine IL-2 receptor due to inhibitory cost; therefore the percentage engraftment is much lower. Mice were sacrificed at 8 weeks post transplantation, and the percentage of GFP-positive human cells was assessed by flow cytometry (Table 3).
# [6] = bone marrow, 8 weeks post secondary transplantation, individual mice, cells transduced + verapamil
Compound,CD34 GFP [1] [%],CFU GFP [1] [%],LTC GFP [1] [%],Secondary CFU GFP [1] [%],effect on transduction efficiency (in words) [1],effect on transduction efficiency (in words) [2],further results
COc1ccc([C@@H]2Sc3ccccc3N(CCN(C)C)C(=O)[C@@H]2OC(C)=O)cc1 [diltiazem],19,15,23,26,significant increase in transduction efficiency,increased transduction to levels similar to verapamil,
CCCN(CCC)S(=O)(=O)c1ccc(C(=O)O)cc1 [probenecid],9,8,11,4,did not increase transduction efficiency,,increase in transduction ([2]; hematopoietic cells): less than 2 fold
COC(=O)[C@H]1[C@H]2C[C@@H]3c4[nH]c5cc(OC)ccc5c4CCN3C[C@H]2C[C@@H](OC(=O)c2cc(OC)c(OC)c(OC)c2)[C@@H]1OC [reserpine],3,5,5,3,did not increase transduction efficiency,did not increase transduction efficiency,
CC(C)c1nc(CN(C)C(=O)N[C@H](C(=O)N[C@@H](Cc2ccccc2)C[C@H](O)[C@H](Cc2ccccc2)NC(=O)OCc2cncs2)C(C)C)cs1 [ritonavir],,,,,increased transduction efficiency,,"percentage of GFP-expressing cells compared with diltiazem or verapamil ([1]; mPB short and long term cultures, ritonavir 5 μM or 20 μM, FIG. 3): did not increase the percentage of GFP-expressing cells as well as diltiazem or verapamil"
COc1ccc(CCN(C)CCCC(C#N)(c2ccc(OC)c(OC)c2)C(C)C)cc1OC (stereo not drawn) [verapamil],,,,56,,,"CD34 copy number [1]: 3.2; copy numbers, increase versus no verapamil ([3]; long-term cultures): 8 fold; copy numbers, increase versus no verapamil ([3]; short-term cultures): 2 fold; percentage of transduced cells ([3]; with verapamil, both short and long term cultures): 70-80%; frequency and distribution of hematopoietic subsets ([4]; NOD-SCID mice, cells transduced in verapamil): unchanged; increase in SRC transduction over levels in the absence of verapamil ([4]; SRC recovered from the bone marrow of NOD-SCID mice): three to four-fold; GFP expression in repopulating cells ([4]; bone marrow and spleen, 14 weeks post-hsc transfer, FIG. 5): high percentage of GFP positive repopulating stem cells; GFP expression in human CD45, CD34, CD33, CD19 cells ([4]; bone marrow, 6-8 weeks post-hsc transfer, 50 and 75 μg/ml verapamil pooled, FIG. 4): significantly higher percentage of GFP expressing cells; percentage of GFP-positive cells versus transduced without drug ([5]; CD45, CD19 and CD33 lineages, secondary transplantation): increased percentage of GFP-positive cells; % CD45 Engraft. [5, 6]: <0.1% and 0.3%; % GFP CD19 [5, 6]: 100% and 98%; % GFP CD33 [5, 6]: 38% and 51%; % GFP CD45 [5, 6]: 59% and 97%"
sodium orthovanadate,,,,,reduced efficiency of gene transfer,did not increase transduction efficiency,
